Source: patent US12612409B2, “Pyrrolopyrimidines as CFTR potentiators” (Cystic Fibrosis Foundation, priority 2016, dated 2026)

How the values were obtained:
[1] = biological target: T1, CFTR in F508del/F508del primary CF hBE cells (Homo sapiens, UniProt P13569, DEL508-508); test: Ussing chamber electrophysiology assay of CFTR potentiation in F508del/F508del CF bronchial epithelial cells (27° C.); type: cell-based
T1 construct: Primary cystic fibrosis human bronchial epithelial (CF hBE) cells were expanded and cultured; endogenous in cells; host or cells: primary CF human bronchial epithelial cells, genotype F508del/F508del
T1 sequence (P13569 with tags, fused parts or gaps DEL508-508): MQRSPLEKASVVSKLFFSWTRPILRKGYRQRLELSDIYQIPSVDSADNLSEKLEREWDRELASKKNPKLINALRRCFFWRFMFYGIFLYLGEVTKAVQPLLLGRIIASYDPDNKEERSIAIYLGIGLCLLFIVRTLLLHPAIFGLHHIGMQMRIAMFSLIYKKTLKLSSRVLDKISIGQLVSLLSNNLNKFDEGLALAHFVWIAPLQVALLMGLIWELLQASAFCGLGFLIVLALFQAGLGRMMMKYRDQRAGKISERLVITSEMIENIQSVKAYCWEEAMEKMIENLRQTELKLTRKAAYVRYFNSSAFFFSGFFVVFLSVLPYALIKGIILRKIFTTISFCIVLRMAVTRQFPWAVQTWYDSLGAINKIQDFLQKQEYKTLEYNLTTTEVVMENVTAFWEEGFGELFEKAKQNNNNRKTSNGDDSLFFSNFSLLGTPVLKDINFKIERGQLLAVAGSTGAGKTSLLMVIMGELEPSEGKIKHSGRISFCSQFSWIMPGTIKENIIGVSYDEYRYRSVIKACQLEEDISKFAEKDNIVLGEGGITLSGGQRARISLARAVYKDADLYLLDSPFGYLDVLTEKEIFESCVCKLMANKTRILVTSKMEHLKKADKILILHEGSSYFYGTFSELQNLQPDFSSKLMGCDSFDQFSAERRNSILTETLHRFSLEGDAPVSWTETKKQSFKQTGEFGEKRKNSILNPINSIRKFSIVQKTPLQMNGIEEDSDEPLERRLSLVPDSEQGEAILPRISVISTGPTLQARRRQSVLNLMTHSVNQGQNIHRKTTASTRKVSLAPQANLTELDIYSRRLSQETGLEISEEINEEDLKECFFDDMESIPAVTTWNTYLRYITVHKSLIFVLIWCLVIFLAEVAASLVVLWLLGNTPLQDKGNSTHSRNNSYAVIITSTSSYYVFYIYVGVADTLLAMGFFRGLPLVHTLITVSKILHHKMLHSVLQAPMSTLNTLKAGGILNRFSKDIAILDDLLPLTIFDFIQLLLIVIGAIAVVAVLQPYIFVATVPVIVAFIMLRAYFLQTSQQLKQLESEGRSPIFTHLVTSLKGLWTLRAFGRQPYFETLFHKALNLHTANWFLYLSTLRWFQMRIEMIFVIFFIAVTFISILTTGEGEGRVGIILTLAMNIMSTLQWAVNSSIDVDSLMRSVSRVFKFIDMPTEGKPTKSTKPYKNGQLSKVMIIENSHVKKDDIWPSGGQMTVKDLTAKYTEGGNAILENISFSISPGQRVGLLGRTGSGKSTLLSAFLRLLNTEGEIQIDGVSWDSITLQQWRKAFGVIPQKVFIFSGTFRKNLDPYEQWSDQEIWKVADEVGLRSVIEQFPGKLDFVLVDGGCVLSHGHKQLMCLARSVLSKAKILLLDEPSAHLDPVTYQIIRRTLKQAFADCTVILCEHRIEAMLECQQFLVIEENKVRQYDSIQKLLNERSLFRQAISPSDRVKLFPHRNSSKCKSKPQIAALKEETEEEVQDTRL
From the text: • SHELXTL, Version 5.1, Bruker AXS, 1997. • PLATON, A. L. Spek, J. Appl. Cryst. 2003, 36, 7-13. • MERCURY, C. F. Macrae, P. R. Edington, P. McCabe, E. Pidcock, G. P. Shields, R. Taylor, M. Towler and J. van de Streek, J. Appl. Cryst. 39, 453-457, 2006. • OLEX2, Dolomanov, O. V.; Bourhis, L. J.; Gildea, R. J.; Howard, J. A. K.; Puschmann, H., (2009). J. Appl. Cryst., 42, 339-341. • R. W. W. Hooft et al. J. Appl. Cryst. (2008). 41. 96-103. • H. D. Flack, Acta Cryst. 1983, A39, 867-881. Using Chamber Electrophysiology Assay of CFTR Potentiation in CF Bronchial Epithelial Cells
Primary cystic fibrosis human bronchial epithelial (CF hBE) cells were expanded and cultured according to published methods (Neuberger et al., Ch. 4 of Cystic Fibrosis, Methods in Molecular Biology vol. 741, pp. 39-54 (2011)). Well-differentiated cells (>30 days at air/liquid interface) on Snapwell filters (Corning Costar, cat. no. 3801) were mounted in Ussing chambers (Physiologic Instruments, Inc., San Diego, CA). […] HEPES buffered physiological saline (composition (in mM): 137 NaCl, 4 KCl, 1 MgCl2, 1.8 CaCl2), 10 HEPES Na) was used in both apical and basolateral chambers. Chambers were bubbled with air to promote mixing and the voltage was clamped to zero. Amiloride (30 uM), forskolin (10 uM), test compound (4 increasing concentrations), and CFTRinh-172 (20 uM) were added sequentially with 20-25 minutes between additions. Short-circuit currents were acquired and analyzed using LabScribe2. Test compound responses were scaled relative to responses for DMSO (0%) and the maximal response of a positive control potentiator (100%).

[2] = biological target: T2, recombinant F508del V470 CFTR in Fischer rat thyroid (FRT) cells (Homo sapiens, UniProt P13569, DEL508-508); test: FRT ion flux assay of F508del CFTR potentiation; type: cell-based; conditions: FRT cells expressing F508del V470 CFTR, forskolin 20 uM, 27° C. pre-incubation
T2 construct: expressed in transfected cells
T2 sequence (P13569 with tags, fused parts or gaps DEL508-508): as above
Procedure: FRT Ion Flux Assay of F508del CFTR Potentiation
Fischer rat thyroid (FRT) cell lines stably expressing recombinant F508del V470 CFTR and halide-sensitive yellow fluorescent protein (Pedemonte et al., J. Clin. Invest. 115(9) 2564-71 (2005)) were seeded at 25,000 cells/well in 50 uL/well of culture medium into black-walled, clear bottom tissue-culture-treated 384-well plates (Corning, cat. no. 3712). After one day, the cells were pre-incubated at 27° C./5% CO2 for 16-24 hours. The cells were then washed with dPBS and treated with forskolin (20 uM) and test compound for 30 mi by addition of 20 uL of compound dilution buffer (dPBS containing forskolin and test compound). Plates were loaded into FLIPR384 fluorescence imaging plate reader (Molecular Devices). After an initial fluorescence reading, iodide buffer (25 uL) (composition (in mM): 137 NaI, 1.5 K2PO4, 8.1 NaH2PO4, 2.7 KCl, 0.5 MgCl2, 1 CaCl2) was added and a second fluorescence reading was made after approximately 21 seconds. Data treatment involved division of the second fluorescence reading by the initial fluorescence reading, then scaling of the resulting normalized endpoint fluorescence with respect to the responses for DMSO (0%) and a positive control potentiator (100%).

Row | Structure (SMILES) | EC50 [1] | EC50 [2]
1 | CC(c1cnn(-c2ccccc2F)c1)n1c(C#N)c(-c2cnc(C(F)F)nc2)c2c(N)ncnc21 (single isomer, unassigned) [Example 1, 4-Amino-5-[2-(difluoromethyl)pyrimidin-5-yl]-7-{1-[1-(2-fluorophenyl)-1H-pyrazol-4-yl]ethyl}-7H-pyrrolo[2,3-d]pyrimidine-6-carbonitrile] | 1.66 nM | 0.55 nM
2 | CC(c1cnn(-c2ccccc2F)c1)n1c(C#N)c(-c2cnc(C(F)F)nc2)c2c(N)ncnc21 (single isomer, unassigned) [Example 2, 4-Amino-5-[2-(difluoromethyl)pyrimidin-5-yl]-7-{1-[1-(2-fluorophenyl)-1H-pyrazol-4-yl]ethyl}-7H-pyrrolo[2,3-d]pyrimidine-6-carbonitrile] | 8.77 nM | 7.51 nM
3 | CCC(c1cnn(-c2ccccc2F)c1)n1c(C#N)c(-c2cnc(C(F)(F)F)nc2)c2c(N)ncnc21 (single isomer, unassigned) [Example 3, 4-Amino-7-{1-[1-(2-fluorophenyl)-1H-pyrazol-4-yl]propyl}-5-[2-(trifluoromethyl)pyrimidin-5-yl]-7H-pyrrolo[2,3-d] pyrimidine-6-carbonitrile] | 3.36 nM | 9.17 nM
4 | CCC(c1cnn(-c2ccccc2F)c1)n1c(C#N)c(-c2cnc(C(F)(F)F)nc2)c2c(N)ncnc21 (single isomer, unassigned) [Example 4, 4-Amino-7-{1-[1-(2-fluorophenyl)-1H-pyrazol-4-yl]propyl}-5-[2-(trifluoromethyl)pyrimidin-5-yl]-7H-pyrrolo[2,3-d] pyrimidine-6-carbonitrile] | 0.56 nM | 0.61 nM
5 | CC(c1cnn(-c2ccccc2F)c1)n1c(C#N)c(-c2cnc(C(F)(F)F)nc2)c2c(N)ncnc21 (single isomer, unassigned) [Example 5, 4-Amino-7-(1-(1-(2-fluorophenyl)-1H-pyrazol-4-yl)ethyl)-5-(2-(trifluoromethyl)pyrimidin-5-yl)-7H-pyrrolo[2,3-d] pyrimidine-6-carbonitrile] | 7.73 nM | 7.69 nM
6 | CC(c1cnn(-c2ccccc2F)c1)n1c(C#N)c(-c2cnc(C(F)(F)F)nc2)c2c(N)ncnc21 (single isomer, unassigned) [Example 6, 4-Amino-7-(1-(1-(2-fluorophenyl)-1H-pyrazol-4-yl)ethyl)-5-(2-(trifluoromethyl)pyrimidin-5-yl)-7H-pyrrolo[2,3-d] pyrimidine-6-carbonitrile] | 1.19 nM | 1.01 nM
7 | CC(c1cnn(-c2ccc(F)cc2F)c1)n1c(C#N)c(-c2cnc(C(F)(F)F)nc2)c2c(N)ncnc21 (single isomer, unassigned) [Example 7, 4-Amino-7-{1-[1-(2,4-difluorophenyl)-1H-pyrazol-4-yl]ethyl}-5-[2-(trifluoromethyl)pyrimidin-5-yl]-7H-pyrrolo[2,3-d] pyrimidine-6-carbonitrile] | 1.84 nM | 2.76 nM
8 | CC(c1cnn(-c2ccc(F)cc2F)c1)n1c(C#N)c(-c2cnc(C(F)(F)F)nc2)c2c(N)ncnc21 (single isomer, unassigned) [Example 8, 4-Amino-7-{1-[1-(2,4-difluorophenyl)-1H-pyrazol-4-yl]ethyl}-5-[2-(trifluoromethyl)pyrimidin-5-yl]-7H-pyrrolo[2,3-d] pyrimidine-6-carbonitrile] | 15.5 nM | 35.2 nM
9 | CC(c1cn(-c2ccccc2F)nn1)n1c(C#N)c(-c2cnc(C(F)(F)F)nc2)c2c(N)ncnc21 (single isomer, unassigned) [Example 9, 4-amino-7-{1-[1-(2-fluorophenyl)-1H-1,2,3-triazol-4-yl]ethyl}-5-[2-(trifluoromethyl)pyrimidin-5-yl]-7H-pyrrolo[2,3-d] pyrimidine-6-carbonitrile] | 20.4 nM | 12.2 nM
10 | CC(c1cn(-c2ccccc2F)nn1)n1c(C#N)c(-c2cnc(C(F)(F)F)nc2)c2c(N)ncnc21 (single isomer, unassigned) [Example 10, 4-Amino-7-{1-[1-(2-fluorophenyl)-1H-1,2,3-triazol-4-yl]ethyl}-5-[2-(trifluoromethyl)pyrimidin-5-yl]-7H-pyrrolo[2,3-d]pyrimidine-6-carbonitrile] | 70.3 nM | 77.6 nM
11 | CC(c1cn(-c2ccc(F)cc2F)nn1)n1c(C#N)c(-c2cnc(C(F)(F)F)nc2)c2c(N)ncnc21 (single isomer, unassigned) [Example 11, 4-Amino-7-{1-[1-(2,4-difluorophenyl)-1H-1,2,3-triazol-4-yl]ethyl}-5-[2-(trifluoromethyl)pyrimidin-5-yl]-7H-pyrrolo[2,3-d] pyrimidine-6-carbonitrile] | 33.5 nM | 19.8 nM
12 | Cc1c(C(C)n2c(C#N)c(-c3cnc(C(F)(F)F)nc3)c3c(N)ncnc32)nnn1-c1ccccc1F (single isomer, unassigned) [Example 12, 4-amino-7-(1-(1-(2-fluorophenyl)-5-methyl-1H-1,2,3-triazol-4-yl)ethyl)-5-(2-(trifluoromethyl)pyrimidin-5-yl)-7H-pyrrolo[2,3-d]pyrimidine-6-carbonitrile] | 22.5 nM | 6.66 nM
13 | Cc1c(C(C)n2c(C#N)c(-c3cnc(C(F)(F)F)nc3)c3c(N)ncnc32)nnn1-c1ccccc1F (single isomer, unassigned) [Example 13, 4-amino-7-(1-(1-(2-fluorophenyl)-5-methyl-1H-1,2,3-triazol-4-yl)ethyl)-5-(2-(trifluoromethyl)pyrimidin-5-yl)-7H-pyrrolo[2,3-d] pyrimidine-6-carbonitrile] | 267 nM | 96.8 nM
14 | COc1ncc(-c2c(C#N)n(C(C)c3cc(-c4ccccc4F)no3)c3ncnc(N)c23)cn1 (single isomer, unassigned) [Example 14, 4-amino-7-{1-[3-(2-fluorophenyl)-1,2-oxazol-5-yl]ethyl}-5-(2-methoxypyrimidin-5-yl)-7H-pyrrolo[2,3-d]pyrimidine-6-carbonitrile] | 13 nM | 23.6 nM
15 | COc1ncc(-c2c(C#N)n(C(C)c3cc(-c4ccccc4F)no3)c3ncnc(N)c23)cn1 (single isomer, unassigned) [Example 15, 4-amino-7-{1-[3-(2-fluorophenyl)-1,2-oxazol-5-yl]ethyl}-5-(2-methoxypyrimidin-5-yl)-7H-pyrrolo[2,3-d]pyrimidine-6-carbonitrile] | 7 nM | 7.22 nM
16 | CCC(c1cn(-c2ccc(F)cc2F)nn1)n1c(C#N)c(-c2cnc(C(F)(F)F)nc2)c2c(N)ncnc21 (single isomer, unassigned) [Example 16, 4-Amino-7-{1-[1-(2,4-difluorophenyl)-1H-1,2,3-triazol-4-yl]propyl}-5-[2-(trifluoromethyl)pyrimidin-5-yl]-7H-pyrrolo[2,3-d] pyrimidin-6-carbonitrile] | 9 nM | 6.39 nM
17 | CCC(c1cn(-c2ccc(F)cc2F)nn1)n1c(C#N)c(-c2cnc(C(F)(F)F)nc2)c2c(N)ncnc21 (single isomer, unassigned) [Example 17, 4-Amino-7-{1-[1-(2,4-difluorophenyl)-1H-1,2,3-triazol-4-yl]propyl}-5-[2-(trifluoromethyl)pyrimidin-5-yl]-7H-pyrrolo[2,3-d] pyrimidin-6-carbonitrile] | 49.5 nM | 45.3 nM
18 | Nc1ncnc2c1c(-c1ccc(Cl)cc1)cn2Cc1nnc(-c2ccccc2)[nH]1 [Example 284, 5-(4-Chlorophenyl)-7-[(5-phenyl-4H-1,2,4-triazol-3-yl)methyl]-7H-pyrrolo[2,3-d]pyrimidin-4-amine] | 551 nM | 
